Results taken from US20170022171A1, “2,5-DISUBSTITUTED CYCLOPENTANECARBOXYLIC ACIDS AND THEIR USE” (Bayer Pharma Aktiengesellschaft, priority 2014, published 2017).

Columns and labels:
Format in all cases: biochemical
mouse MMP-3 = biological target: T1, mouse MMP-3 (Mus musculus, UniProt P28862); assay: In vitro mouse MMP-3 inhibition test
T1 construct: purchased R&D Systems 548-MP
Description: (§1) The MMP-mediated amidolytic cleavage of a suitable peptide substrate leads to an increase in fluorescent light here too. The signal intensity of the fluorescent light is directly proportional to the enzyme activity. The active concentration of a test compound at which half the enzyme is inhibited (50% signal intensity of the fluorescent light) is reported as the IC50 value.
(§2) Recombinant mouse MMP-3 (from R&D Systems, 548-MP) is chemically activated in accordance with the manufacturer's instructions using APMA. 1 μl of the test compound to be analysed (as a solution in DMSO, suitable concentrations, for example, 1 nM to 30 μM) is pipetted into 24 μl of activated enzyme (final concentration, for example, 0.5 nM) in reaction buffer (50 mM Tris/HCl pH 7.5, 10 mM CaCl2, 150 mM NaCl, 0.05% Brij®-35) in a white 384-hole microtiter plate (MTP). The enzymatic reaction is started by adding the intramolecularly quenched Mca-Arg-Pro-Lys-Pro-Val-Glu-Nval-Trp-Arg-Lys(Dnp)-NH2 substrate (final concentration, for example, 5 μM; R&D Systems, ES-002), so as to result in a total test volume of 50 μl. The course of the MMP-3 reaction is measured by measuring the fluorescence intensity (excitation 320 nm, emission 410 nm) over a suitable period of time (for example over 120 min at a temperature of 32° C.).

MMP-10 = biological target: T2, MMP-10 (Homo sapiens, UniProt P09238); assay: In vitro MMP-10 inhibition test
T2 construct: purchased R&D Systems 910-MP
Description: as §1
as §2, with “Recombinant MMP-10” for “Recombinant mouse MMP-3”, “Systems, 910-MP)” for “Systems, 548-MP)”, “example, 2” for “example, 0.5”, “example, 10” for “example, 5”, “the MMP-10” for “the MMP-3”

mouse MMP-2 = biological target: T3, mouse MMP-2 (Mus musculus, UniProt P33434); assay: In vitro mouse MMP-2 inhibition test
T3 construct: purchased R&D Systems 924-MP
Description: as §1
(§3) Recombinant mouse MMP-2 (from R&D Systems, 924-MP) is chemically activated in accordance with the manufacturer's instructions using APMA. 1 μl of the test compound to be analysed (as a solution in DMSO, suitable concentrations, for example, 1 nM to 30 μM) is pipetted into 24 μl of activated enzyme (final concentration, for example, 0.1 nM) in reaction buffer (50 mM Tris/HCl pH 7.5, 10 mM CaCl2, 150 mM NaCl, 0.05% Brij®-35) in a white 384-hole microtiter plate (MTP). The enzymatic reaction is started by adding the intramolecularly quenched Mca-Pro-Leu-Gly-Leu-Dpa(Dnp)-Ala-Arg-NH2 substrate (final concentration, for example, 10 μM; R&D Systems, ES-001), so as to result in a total test volume of 50 The course of the MMP-2 reaction is measured by measuring the fluorescence intensity (excitation 320 nm, emission 410 nm) over a suitable period of time (for example over 120 min at a temperature of 32° C.).

MMP-2 = biological target: T4, MMP-2 (Homo sapiens, UniProt P08253); assay: In vitro MMP-2 inhibition test
T4 construct: purchased R&D Systems 902-MP
T4 sequence (P08253 110-660): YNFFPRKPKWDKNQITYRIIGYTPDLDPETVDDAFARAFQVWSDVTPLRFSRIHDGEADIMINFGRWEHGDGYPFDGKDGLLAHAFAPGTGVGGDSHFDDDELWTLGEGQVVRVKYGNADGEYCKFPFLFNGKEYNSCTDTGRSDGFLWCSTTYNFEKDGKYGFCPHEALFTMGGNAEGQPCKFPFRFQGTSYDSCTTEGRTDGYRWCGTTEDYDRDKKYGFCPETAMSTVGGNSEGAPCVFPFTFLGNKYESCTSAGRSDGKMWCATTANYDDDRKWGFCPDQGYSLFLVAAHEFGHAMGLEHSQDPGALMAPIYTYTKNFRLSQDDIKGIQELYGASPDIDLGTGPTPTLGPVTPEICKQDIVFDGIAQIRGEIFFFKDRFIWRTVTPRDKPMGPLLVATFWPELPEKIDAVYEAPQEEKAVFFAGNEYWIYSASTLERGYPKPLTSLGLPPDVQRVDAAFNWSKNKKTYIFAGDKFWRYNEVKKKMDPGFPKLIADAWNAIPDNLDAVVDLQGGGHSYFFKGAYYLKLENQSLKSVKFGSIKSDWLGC
Description: as §1
as §3, with “Recombinant MMP-2 (from” for “Recombinant mouse MMP-2 (from”, “R&D Systems, 902-MP) is chemically” for “R&D Systems, 924-MP) is chemically”, “for example, 2 nM) in” for “for example, 0.1 nM) in”, “of 50 μl. The course” for “of 50 The course”

T3 sequence (P33434 110-662): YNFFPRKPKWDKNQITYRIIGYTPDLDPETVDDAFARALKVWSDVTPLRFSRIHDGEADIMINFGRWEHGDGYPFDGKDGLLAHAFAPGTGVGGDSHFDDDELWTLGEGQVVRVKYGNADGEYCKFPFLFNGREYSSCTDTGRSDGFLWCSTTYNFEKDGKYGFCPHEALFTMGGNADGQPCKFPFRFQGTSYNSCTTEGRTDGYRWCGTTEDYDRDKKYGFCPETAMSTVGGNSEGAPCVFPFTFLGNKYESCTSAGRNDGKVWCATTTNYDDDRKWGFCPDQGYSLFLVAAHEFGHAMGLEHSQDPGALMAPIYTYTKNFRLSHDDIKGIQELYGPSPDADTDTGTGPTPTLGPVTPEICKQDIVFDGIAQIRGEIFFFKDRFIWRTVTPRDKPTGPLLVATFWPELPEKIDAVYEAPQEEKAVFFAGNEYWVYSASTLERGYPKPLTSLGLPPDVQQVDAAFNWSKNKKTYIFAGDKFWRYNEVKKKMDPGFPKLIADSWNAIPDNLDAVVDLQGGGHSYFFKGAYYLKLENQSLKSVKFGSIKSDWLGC
T2 sequence (P09238 99-476): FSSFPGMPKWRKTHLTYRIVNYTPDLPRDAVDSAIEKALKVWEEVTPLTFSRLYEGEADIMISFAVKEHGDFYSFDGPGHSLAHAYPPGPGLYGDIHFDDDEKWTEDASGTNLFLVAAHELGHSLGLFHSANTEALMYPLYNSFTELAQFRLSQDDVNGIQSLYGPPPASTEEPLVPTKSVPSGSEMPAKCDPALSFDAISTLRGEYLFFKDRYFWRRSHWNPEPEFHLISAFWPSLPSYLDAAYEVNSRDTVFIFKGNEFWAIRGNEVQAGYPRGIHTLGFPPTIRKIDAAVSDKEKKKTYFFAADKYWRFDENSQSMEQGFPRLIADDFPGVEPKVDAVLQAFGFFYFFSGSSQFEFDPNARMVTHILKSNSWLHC
T1 sequence (P28862 100-477): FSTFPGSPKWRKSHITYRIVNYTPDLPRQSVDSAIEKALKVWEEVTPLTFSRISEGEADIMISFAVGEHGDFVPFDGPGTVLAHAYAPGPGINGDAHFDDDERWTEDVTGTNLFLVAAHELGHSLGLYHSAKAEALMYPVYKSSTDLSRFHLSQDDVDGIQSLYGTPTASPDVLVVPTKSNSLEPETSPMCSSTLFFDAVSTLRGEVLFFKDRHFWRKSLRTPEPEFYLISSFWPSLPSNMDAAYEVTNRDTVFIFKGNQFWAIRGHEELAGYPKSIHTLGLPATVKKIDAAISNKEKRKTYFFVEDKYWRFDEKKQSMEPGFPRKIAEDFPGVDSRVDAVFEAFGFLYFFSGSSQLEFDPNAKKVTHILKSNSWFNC

IC50 (mouse MMP-3) [nM]	IC50 (MMP-10) [nM]	IC50 (mouse MMP-2) [nM]	IC50 (MMP-2) [nM]	SMILES
1800	160	890	540	Cc1ccc2nnn(C[C@@H]3CC[C@H](C(=O)c4ccc(OCc5cccc(C(F)(F)F)c5)cc4)[C@H]3C(=O)O)c(=O)c2c1 (racemic) [Example 100, (+/−)-(1RS,2SR,5RS)-2-[(6-Methyl-4-oxo-1,2,3-benzotriazin-3(4H)-yl)methyl]-5-(4-{[3-(trifluoromethyl)benzyl]oxy}benzoyl)cyclopentanecarboxylic acid]
1100	35	370	370	Cc1ccc2nnn(C[C@@H]3CC[C@H](C(=O)c4ccc(OCc5cccc(Cl)c5)cc4)[C@H]3C(=O)O)c(=O)c2c1 (racemic) [Example 103, (+/−)-(1RS,2RS,5SR)-2-{4-[(3-Chlorobenzyl)oxy]benzoyl}-5-[(6-methyl-4-oxo-1,2,3-benzotriazin-3(4H)-yl)methyl]cyclopentanecarboxylic acid]
1100	100	1300	1100	Cc1ccc2nnn(C[C@@H]3CC[C@H](C(=O)c4ccc(OCc5cccc(OC(F)(F)F)c5)cc4)[C@H]3C(=O)O)c(=O)c2c1 (racemic) [Example 109, (+/−)-(1RS,2SR,5RS)-2-[(6-Methyl-4-oxo-1,2,3-benzotriazin-3(4H)-yl)methyl]-5-(4-{[3-(trifluoromethoxy)benzyl]oxy}benzoyl)cyclopentanecarboxylic acid]
1800	81	370	170	CCCCCOc1ccc(C(=O)[C@H]2CC[C@@H](Cn3nnc4ccc(C)cc4c3=O)[C@@H]2C(=O)O)cc1 (racemic) [Example 123, (+/−)-(1RS,2SR,5RS)-2-[(6-Methyl-4-oxo-1,2,3-benzotriazin-3(4H)-yl)methyl]-5-[4-(pentyloxy)benzoyl]cyclopentanecarboxylic acid]
8000	87	2400	1600	O=C(O)[C@@H]1[C@@H](Cn2nnc3ccc(C(F)(F)F)cc3c2=O)CC[C@H]1C(=O)c1ccc(OCc2cccc(Cl)c2)cc1 (single isomer, unassigned) [Example 23, (+)-(1RS,2RS,5SR)-2-{4-[(3-Chlorobenzyl)oxy]benzoyl}-5-{[4-oxo-6-(trifluoromethyl)-1,2,3-benzotriazin-3(4H)-yl]methyl}cyclopentanecarboxylic acid]
790	20	180	97	O=C(O)[C@@H]1[C@@H](Cn2nnc3ccc(C(F)(F)F)cc3c2=O)CC[C@H]1C(=O)c1ccc(OCC2CCCCC2)cc1 (single isomer, unassigned) [Example 41, (+)-(1RS,2RS,5SR)-2-[4-(Cyclohexylmethoxy)benzoyl]-5-{[4-oxo-6-(trifluoromethyl)-1,2,3-benzotriazin-3(4H)-yl]methyl}cyclopentanecarboxylic acid]
6900	52	1800	1600	O=C(O)[C@@H]1[C@@H](Cn2nnc3ccc(C(F)(F)F)cc3c2=O)CC[C@H]1C(=O)c1ccc(OCCC2CCCCC2)cc1 (single isomer, unassigned) [Example 52, (+)-(1RS,2RS,5SR)-2-[4-(2-Cyclohexylethoxy)benzoyl]-5-{[4-oxo-6-(trifluoromethyl)-1,2,3-benzotriazin-3(4H)-yl]methyl}cyclopentanecarboxylic acid]
5900	57	4200	4200	O=C(O)[C@@H]1[C@@H](Cn2nnc3ccc(C(F)(F)F)cc3c2=O)CC[C@H]1C(=O)c1ccc(SCc2ccccc2)cc1 (single isomer, unassigned) [Example 75, (+)-(1RS,2RS,5SR)-2-[4-(Benzylsulphanyl)benzoyl]-5-{[4-oxo-6-(trifluoromethyl)-1,2,3-benzotriazin-3(4H)-yl]methyl}cyclopentanecarboxylic acid]
1400	30	1400	970	O=C(O)[C@@H]1[C@@H](Cn2nnc3ccc(C(F)(F)F)cc3c2=O)CC[C@H]1C(=O)c1ccc(SCc2cccc(Cl)c2)cc1 (single isomer, unassigned) [Example 77, (+)-(1RS,2RS,5SR)-2-{4-[(3-Chlorobenzyl)sulphanyl]benzoyl}-5-{[4-oxo-6-(trifluoromethyl)-1,2,3-benzotriazin-3(4H)-yl]methyl}cyclopentanecarboxylic acid]
2500	53	1500	1400	O=C(O)[C@@H]1[C@@H](Cn2nnc3ccc(C(F)(F)F)cc3c2=O)CC[C@H]1C(=O)c1ccc(SCc2ccc(Cl)c(Cl)c2)cc1 (single isomer, unassigned) [Example 80, (+)-(1RS,2RS,5SR)-2-{4-[(3,4-Dichlorobenzyl)sulphanyl]benzoyl}-5-{[4-oxo-6-(trifluoromethyl)-1,2,3-benzotriazin-3(4H)-yl]methyl}cyclopentanecarboxylic acid]
200	15	57	47	Cc1ccc2nnn(C[C@H]3CC[C@@H](C(=O)c4ccc(OCc5ccccc5)cc4)[C@@H]3C(=O)O)c(=O)c2c1 (single isomer, unassigned) [Example 92, (+)-(1RS,2RS,5SR)-2-[4-(Benzyloxy)benzoyl]-5-[(6-methyl-4-oxo-1,2,3-benzotriazin-3(4H)-yl)methyl]cyclopentanecarboxylic acid]
730	55	640	440	Cc1cccc(COc2ccc(C(=O)[C@@H]3CC[C@H](Cn4nnc5ccc(C)cc5c4=O)[C@H]3C(=O)O)cc2)c1 (single isomer, unassigned) [Example 98, (+)-(1RS,2RS,5SR)-2-{4-[(3-Methylbenzyl)oxy]benzoyl}-5-[(6-methyl-4-oxo-1,2,3-benzotriazin-3(4H)-yl)methyl]cyclopentanecarboxylic acid]
